The results in this text go back to publication PMC10572855, “Phenotypic Test of Benzo[4,5]imidazo[1,2-c]pyrimidinone-Based Nucleoside and Non-Nucleoside Derivatives against DNA and RNA Viruses, Including Coronaviruses” (International Journal of Molecular Sciences, 2023).

In series [1] the test system is HEL299 cells. The settings on record: minimum cytotoxic concentration, microscopically detectable alteration of cell morphology.
Procedure: (§1) Cells were seeded at a rate of 5 × 10^3 cells/well into 96-well plates and allowed to proliferate for 24 h. Then, a medium containing different concentrations of the test compounds, starting at 100 mM, was added. After 3 days of incubation at 37 °C, the cell count was determined with a Beckman Coulter counter or, alternatively, cell viability was determined with the colorimetric formazan-based MTS assay. […] The cytotoxic effects of the compounds were also assessed by evaluating the MCC (minimum cytotoxic concentration that causes a microscopically detectable alteration of cell morphology).
The nature of series [2]: Cell growth inhibition in HEL299 cells, Coulter Counter. It is filed as cell-based. Conditions: human, 3 days of cell growth, read-out: Cytotoxicity Cell Growth (CC50).
Procedure: as §1
In series [3] the test system is TK+ VZV strain OKA. Nature of the series: microbe, parasite or virus in culture. Conditions: Human alphaherpesvirus 3, HEL 299, read-out: Antiviral Activity (EC50) TK+ VZV Strain OKA. It is filed as cell-based, Varicella zoster virus.
The subject of series [4] is TK- VZV strain 07-1. Kind of series: microbe, parasite or virus in culture. The settings on record: Human alphaherpesvirus 3, HEL 299, read-out: Antiviral Activity (EC50) TK− VZV Strain 07-1.
Series [5] concerns HCoV NL63. Nature of the series: Cytopathic effect reduction, HCoV NL63. Format: cell-based, Human coronavirus NL63. Conditions: Human coronavirus NL63; reduction of virus-induced cytopathic effect by 50%; virus input 100 TCID50; read-out: Antiviral Activity (EC50) HCoV NL63.
A short description of series [6]: Cytotoxicity in Huh7 cells, MTS assay. Format: cell-based, Human. Conditions: human, Huh7 cells, cell growth reduced by 50%. Background: Tetrazolium assays rely on reduction of a dye to a coloured formazan, in cell work by metabolically active cells.
Procedure: as §1
Series [7] has as its system HCoV 229E. Nature of the series: Cytopathic effect reduction, HCoV 229E. Format: cell-based, Human coronavirus 229E. The settings on record: Human coronavirus 229E; reduction of virus-induced cytopathic effect by 50%; virus input 100 TCID50; read-out: Antiviral Activity (EC50) HCoV 229E. (In general: Protection from cytopathic effect is a common read-out in antiviral testing.)

The subject of series [8] is SARS-CoV-2 B1.1 529 BA.1 (Omicron). Nature of the series: Cytopathic effect reduction, SARS-CoV-2 B1.1 529 BA.1 (Omicron) in Vero cells. It is filed as cell-based. The settings on record: Severe acute respiratory syndrome coronavirus 2, CPE reduced by 50%, read-out: Antiviral Activity (EC50) B1.1 529 BA.1 (Omicron).
The nature of series [9]: Cytotoxicity in HEL299 cells, MTS assay. It is filed as cell-based, Human. The settings on record: human, HEL299 cells, cell growth reduced by 50%.
Procedure: as §1
Series [10] concerns RSV (Long). Nature of the series: Cytopathic effect reduction, RSV (Long). The settings on record: human respiratory syncytial virus; reduction of virus-induced cytopathic effect by 50%; virus input 100 TCID50; read-out: Antiviral Activity (EC50) RSV Long. It is filed as cell-based, Respiratory syncytial virus.
For series [11], the system named is SARS-CoV-2 UC-1074 (Wuhan). Kind of series: Cytopathic effect reduction, SARS-CoV-2 UC-1074 (Wuhan) in Vero cells. Format: cell-based. The settings on record: Severe acute respiratory syndrome coronavirus 2, UC1074, CPE reduced by 50%, 100 TCID50, read-out: Antiviral Activity (EC50) UC-1074 (Wuhan).
Series [12] addresses T1, SARS-CoV-2 N-protein and stem-loop vgRNA fragment condensates (Severe acute respiratory syndrome coronavirus 2, UniProt P0DTC9).
T1 construct: His-tag; made in house
Nature of the series: Cell-free LLPS assay, N-protein:vgRNA condensates. Conditions: 20 µM compound. Format: biochemical.

For series [13], the target named is SARS-CoV-2 RdRp (nsp12, nsp7-nsp8) (Severe acute respiratory syndrome coronavirus 2, UniProt P0DTD1). Kind of series: In vitro transcription assay with SARS-CoV-2 RdRp. It is filed as biochemical. The settings on record: RdRp 1 µM, RNA substrate 25 nM, 100 µM NTPs, 30 °C; read-out: IC50, inhibition of RdRp activity (RNA primer extension).
The test system of series [14] is HCoV OC43. Kind of series: Cytopathic effect reduction, HCoV OC43. Format: cell-based, Human coronavirus OC43. Conditions: Betacoronavirus 1, OC43; reduction of virus-induced cytopathic effect by 50%; virus input 100 TCID50; read-out: Antiviral Activity (EC50) HCoV OC43.
Series [15] has as its system Vero cells. The settings on record: minimum cytotoxic concentration, microscopically detectable alteration of cell morphology.
The nature of series [16]: in vitro. The settings on record: green monkey.
Series [17] deals with SARS-CoV-2 NVDBB-2220 (UK). Kind of series: Cytopathic effect reduction, SARS-CoV-2 NVDBB-2220 (UK) in Vero cells. Conditions: Severe acute respiratory syndrome coronavirus 2, CPE reduced by 50%, 100 TCID50, read-out: Antiviral Activity (EC50) NVDBB-2220 (UK). Format: cell-based.
Series [18] relates to SARS-CoV-2 860-J1 (Delta). Kind of series: Cytopathic effect reduction, SARS-CoV-2 860-J1 (Delta) in Vero cells. It is filed as cell-based. Conditions: Severe acute respiratory syndrome coronavirus 2, CPE reduced by 50%, 100 TCID50, read-out: Antiviral Activity (EC50) 860-J1 (Delta).

Take `Nc1nc2c(ncn2COCCO)c(=O)[nH]1` [Aciclovir, reference compound]: the “Cytotoxicity Cell Morphology (MCC)” value in series [1] is above 100 μM. Besides, the CC50 at 3 days in series [2] is above 100 µM.

Regarding `O=c1[nH]c(=O)n([C@H]2C[C@H](O)[C@@H](CO)O2)cc1/C=C/Br` [Brivudine, reference compound], the EC50 in [3] was 0.1 ± 0.07 µM; in series [4], 0.14 ± 0.03 µM. In series [1], the “Cytotoxicity Cell Morphology (MCC)” value is on record as above 100 μM. Further, in series [2], the CC50 at 3 days is above 100 µM.

As usually defined, the IC50 is the concentration at which inhibition is half-maximal. In the case of `COc1ccc(C(OC[C@H]2O[C@@H](n3ccc4nc5cc(O)ccc5n4c3=O)[C@H](O)[C@@H]2O)(c2ccccc2)c2ccc(OC)cc2)cc1` [Compound 3b, 2-((2R,3R,4S,5R)-5-((bis(4-methoxyphenyl)(phenyl)methoxy)methyl)-3,4-dihydroxytetrahydrofuran-2-yl)-7-hydroxybenzo[4,5]imidazo[1,2-c]pyrimidin-1(2H)-one], the EC50 in series [5] is above 100 µM; in [3], above 4 µM; in [7] it was 4.1 ± 2 µM; in series [8], above 20 µM; in [4], above 4 µM; in series [10], 5.7 ± 0.8 µM. The EC50 in series [11] was above 20 µM; in series [14] it was below 0.8 µM. Also, the results for the CC50 at 3 days in [6] and in series [9] were below 0.8 µM and above 20 µM, respectively. The “Cytotoxicity Cell Morphology (MCC)” value in [1] and in [15] was 20 μM each time. Further, the “effect on LLPS / condensates (summary in words)” value in series [12] is on record as “minor”. The IC50 in series [13] was found to be 95 ± 4 µM.

In the case of `CCCCCCCCCCOc1ccc2c(c1)nc1cc[nH]c(=O)n12` [Compound 6d, 7-(decyloxy)benzo[4,5]imidazo[1,2-c]pyrimidin-1(2H)-one], the EC50 in series [5], in series [7], in series [10] and in series [14] was above 100 µM throughout. Also, the CC50 at 3 days in series [6] and in series [9] was above 100 µM throughout.

`CCCCCCCCCCCCOc1ccc2c(c1)nc1cc[nH]c(=O)n12` [Compound 6e, 7-(dodecyloxy)benzo[4,5]imidazo[1,2-c]pyrimidin-1(2H)-one]: the EC50 in series [5], in [7], in [10] and in series [14] was above 100 µM throughout. Besides, the CC50 at 3 days in series [6] and in series [9] was above 100 µM in each case.

With `COc1ccc(C(OC[C@H]2O[C@@H](n3ccc4nc5cc(OC)ccc5n4c3=O)[C@H](O)[C@@H]2O)(c2ccccc2)c2ccc(OC)cc2)cc1` [Compound 7b, 2-((2R,3R,4S,5R)-5-((bis(4-methoxyphenyl)(phenyl)methoxy)methyl)-3,4-dihydroxytetrahydrofuran-2-yl)-7-methoxybenzo[4,5]imidazo[1,2-c]pyrimidin-1(2H)-one], the EC50 in [3] was 30.7 ± 4.68 µM; in [8], above 20 µM; in series [4] it was 7.13 ± 0.94 µM; in [11] it was above 20 µM. Besides, the results for the “Cytotoxicity Cell Morphology (MCC)” value in series [1] and in series [15] were at least 100 μM and above 100 μM, respectively. In series [2], the CC50 at 3 days was 10.3 ± 5.63 µM.

As for `COc1ccc2c(c1)nc1ccn([C@H]3C[C@H](O)[C@@H](CO)O3)c(=O)n12` [Compound 8a, 2-((2R,4S,5R)-4-hydroxy-5-(hydroxymethyl)tetrahydrofuran-2-yl)-7-methoxybenzo[4,5]imidazo[1,2-c]pyrimidin-1(2H)-one], the EC50 in [3], in series [8], in series [4] and in series [11] was above 20 µM each time. The “Cytotoxicity Cell Morphology (MCC)” value in series [1] and in series [15] was 100 μM in each case.

Regarding `COc1ccc2c(c1)nc1ccn([C@@H]3O[C@H](CO)[C@@H](O)[C@H]3O)c(=O)n12` [Compound 8b, 2-((2R,3R,4S,5R)-3,4-dihydroxy-5-(hydroxymethyl)tetrahydrofuran-2-yl)-7-methoxybenzo[4,5]imidazo[1,2-c]pyrimidin-1(2H)-one], the EC50 in series [3], in series [8], in series [4] and in series [11] was above 20 µM each time. Further, the “Cytotoxicity Cell Morphology (MCC)” value in [1] and in series [15] was 100 μM throughout.

Regarding `COc1ccc(C(OC[C@H]2O[C@@H](n3ccc(N)nc3=O)C[C@@H]2O)(c2ccccc2)c2ccc(OC)cc2)cc1` [Compound 9a, 4-amino-1-((2R,4S,5R)-5-((bis(4-methoxyphenyl)(phenyl)methoxy)methyl)-4-hydroxytetrahydrofuran-2-yl)pyrimidin-2(1H)-one], the EC50 in series [3] is above 20 µM; in series [8], above 100 µM; in series [4] it was above 20 µM; in series [11], above 100 µM. The “Cytotoxicity Cell Morphology (MCC)” value in series [1] is recorded as 100 μM; in series [15], above 100 μM. Moreover, in series [12], the “effect on LLPS / condensates (summary in words)” value was “reduced droplet density but did not prevent LLPS”. In addition, the “decrease in the partitioning coefficient” value in series [12] (3 µM N-protein, 6 µM RNA) was “approximately 4 fold”.

With `COc1ccc(C(OC[C@H]2O[C@@H](n3ccc(N)nc3=O)[C@H](O)[C@@H]2O)(c2ccccc2)c2ccc(OC)cc2)cc1` [Compound 9b, 4-amino-1-((2R,3R,4S,5R)-5-((bis(4-methoxyphenyl)(phenyl)methoxy)methyl)-3,4-dihydroxytetrahydrofuran-2-yl)pyrimidin-2(1H)-one], the EC50 is above 4 µM in [3], above 20 µM in series [8], above 20 µM in [4] and above 20 µM in series [11]. Further, the “Cytotoxicity Cell Morphology (MCC)” value in series [1] is at least 20 μM; in series [15], 100 μM.

On to `CC(C)C(=O)OC[C@H]1O[C@@H](n2ccc(NO)nc2=O)[C@H](O)[C@@H]1O` [Molnupiravir], for which the CC50 in series [16] was above 100 µM. The EC50 stood at 5.2 ± 0.23 µM in series [8], 5.52 ± 0.28 µM in series [11], 3.08 ± 2.12 µM in [17] and 5.78 ± 0.29 µM in series [18]. Further, in series [15], the “Cytotoxicity Cell Morphology (MCC)” value was above 100 μM.

As for `CCC(CC)COC(=O)[C@H](C)N[P@](=O)(OC[C@H]1O[C@@](C#N)(c2ccc3c(N)ncnn23)[C@H](O)[C@@H]1O)Oc1ccccc1` [Remdesivir, reference compound], the EC50 in series [5] amounted to 0.03 µM; in series [7], 0.03 µM; in [8], 0.91 ± 0.17 µM; in [10], 0.02 µM; in [11], 1.96 ± 1 µM; in series [17] it was 0.72 ± 0.15 µM. Further, the figures for the EC50 in [18] and in series [14] were 3.23 ± 0.61 µM and 0.03 µM, respectively. In series [16], this compound gave a CC50 of at least 40 µM. The CC50 at 3 days in series [6] and in series [9] was above 10 µM each time. For the same compound, the “Cytotoxicity Cell Morphology (MCC)” value in series [15] is reported as at least 40 μM.
